Experimental findings from patent US20030212100A1, “Quinoline derivatives and medicinal use thereof” (priority 2000, published 2003) are described below.

One assay deals with T1, human PPARα receptor (Homo sapiens, UniProt Q07869).
T1 construct: expressed in transfected cells; host or cells: CV-1 cells (pSG5-based expression vector)
T1 sequence (Q07869 167-468): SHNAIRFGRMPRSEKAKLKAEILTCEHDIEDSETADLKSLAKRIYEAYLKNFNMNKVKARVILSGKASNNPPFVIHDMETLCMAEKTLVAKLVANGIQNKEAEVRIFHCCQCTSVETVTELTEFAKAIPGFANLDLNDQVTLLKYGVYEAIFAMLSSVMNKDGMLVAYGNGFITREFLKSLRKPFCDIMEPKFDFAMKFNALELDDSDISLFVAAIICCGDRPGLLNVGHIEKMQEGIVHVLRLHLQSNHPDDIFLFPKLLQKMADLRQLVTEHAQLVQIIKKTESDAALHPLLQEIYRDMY
As to the kind of experiment: Luciferase reporter assay of PPARα agonist activity (Gal4-PPARα chimera receptor in CV-1 cells). It is filed as cell-based. The note with it: for PPARα agonist activity, relative activity: luciferase activity with 10 μM Wy-14,643 taken as 100; for Emax at 0.1 µM: CV-1, 0.1 μM compound; for Emax at 0.1 µM / Emax at 1 µM / Emax at 10 µM: luciferase activity with 10 μM Wy-14,643 taken as 100, read-out: PPARα agonist activity, relative activity; for Emax at 1 µM: CV-1, 1 μM compound; for Emax at 10 µM: CV-1, 10 μM compound. The procedure: (§1) Measurement of PPARα Agonist Activity and PPARγ Agonist Activity
(§2) 1. Materials for Assay of Luciferase Using Human PPARα and PPARγ Receptors
(§3) The entire procedure was carried out according to the fundamental methods of genetic engineering and the ordinary method in the yeast one-hybrid or two-hybrid system was applied.
(§4) PGL2-UAS5-TK-luc was prepared as a reporter plasmid carrying a response sequence of Gal4 protein as a basic transcription factor of yeast, an enhancer sequence with five repeat part of UAS, a luciferase gene (luc) under the control of timidine kinase (TK) promoter. Specifically, a DNA fragment encoding a TK promoter (−105/+51) on the downstream side of an enhancer sequence comprising two time repeat of UAS was amplified by PCR using pRL-TK carrying a TK promoter (Promega, Trade name: Catalogue No. E2241) as the template and the primers: […]
(§5) After the fragment was cleaved with XhoI-Hind III, pGL2-UAS2-TK-luc was obtained by inserting the resultant fragment into the XhoI-Hind III site located on the upstream side of a luciferase structural gene on pGL2-Basic vector (Promega, Trade name: Catalogue No. E1641).
(§6) After cleavage of a synthetic DNA as an enhancer sequence comprising three time repeat of Gal4 response sequence (SEQ ID NO: 3): 5′-ATTGGTAC([…])×3 AGATCTCGAC) using KpnI and BgIII was carried out, pGL2-UAS5-TK-luc was prepared by inserting the resulting fragment into the KpnI-BgIIIb site of pGL2-UAS2-TK-luc.
(§7) A vector for expression of a chimera receptor protein, in which a ligand binding region of an internuclear receptor human PPARα or PPARγ receptor was fused with the carboxyl terminal of a DNA binding region of yeast Ga14 protein, was prepared as follows:
(§8) The structural gene of pSG5 (STRATAGENE, Trade Name: Catalogue No. 216201) as the basic expression vector was changed for the chimera receptor except that the promoter-enhancer region was maintained as it was.
(§9) The DNA encoding the ligand binding region of the human PPARα or PPARγ receptor was fused on the downstream side of the DNA encoding the DNA binding region and the amino acid sequence from 1 to 147 positions of Ga14 protein so that their reading frames were fitted and the resulting fused DNA was inserted into pSG5 (trade name) on the down stream side of the promoter-enhancer region. In this step, the DNA sequence was arranged so that a signal for transfer into the nucleus (Ala Pro Lys Lys Lys Arg Lys Val Gly (SEQ ID: No: 4) derived from SV-40T antigen was located on the amino terminal of the ligand binding region of PPARα or PPARγ receptor in order to localize the chimera receptor in the nucleus.
(§10) Based on comparison of the human PPAR receptors described in R. Mukherjee et al., [see J. Steroid Biochem. Molec. Biol., Vol. 51, p157 (1994)] and M. E. Green et al., [see Gene Expression, Vol. 4, p281 (1995))], as the structural gene part used for the ligand binding region PPARα or PPARγ, the human PPARα ligand binding region: Ser167-Tyr468; and the PPARγ ligand binding region: Ser176-Tyr478 were used, which had the same sequences corresponding to Ser204-Tyr506 for human PPARγ1 receptor and human PPARγ2, respectively.
(§11) In order to monitor influence against the basic transcription, an expression vector was prepared which carried a DNA encoding only the DNA binding region and the amino acid sequence from 1 to 147 position of Ga14 protein defective in its PPAR ligand binding region and a signal for transfer into the nucleus of SV-40T-antigen.
(§12) 2. Assay of Luciferase Using Human PPARα or PPARγ Receptor
(§13) CV-1 cells used as a host cell were cultivated according to an ordinary method. Specifically, a fetal bovine serum (Intergent, Catalogue No. 1020-90) was added to a Dulbecco's modified Eagle's medium (DMEM) so that the final concentration became 10%. Further, penicillin G (50 U/ml) and streptomycin sulfate (50 μg/ml) were added. Cultivation was conducted in the resulting medium in a 5% carbon dioxide gas at 37° C. […]
(In general: In a reporter assay the amount or activity of a reporter protein is the signal.)

In another assay the target is T2, human PPARγ receptor (Homo sapiens, UniProt P37231).
T2 construct: corresponding to Ser204-Tyr506 for human PPARγ1 receptor and human PPARγ2; expressed in transfected cells; host or cells: CV-1 cells (pSG5-based expression vector)
T2 sequence (P37231 204-505 limits assumed): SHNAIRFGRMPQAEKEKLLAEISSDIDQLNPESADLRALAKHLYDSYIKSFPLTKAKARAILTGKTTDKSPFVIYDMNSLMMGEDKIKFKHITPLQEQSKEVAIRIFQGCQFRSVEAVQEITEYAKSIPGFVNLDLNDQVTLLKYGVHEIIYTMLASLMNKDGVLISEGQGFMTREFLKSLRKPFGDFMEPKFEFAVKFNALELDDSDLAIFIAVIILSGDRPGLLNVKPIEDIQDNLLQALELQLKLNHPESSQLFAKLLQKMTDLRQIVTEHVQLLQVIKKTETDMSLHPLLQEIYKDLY
As to the kind of experiment: Luciferase reporter assay of PPARγ agonist activity (Gal4-PPARγ chimera receptor in CV-1 cells). It counts as cell-based. Conditions: for PPAR γ agonist activity, relative activity: luciferase activity with 1 μM Pioglitazone taken as 100; for Emax at 0.1 µM: CV-1, 0.1 μM compound; for Emax at 0.1 µM / Emax at 1 µM / Emax at 10 µM: luciferase activity with 1 μM Pioglitazone taken as 100, read-out: PPAR γ agonist activity, relative activity; for Emax at 1 µM: CV-1, 1 μM compound; for Emax at 10 µM: CV-1, 10 μM compound. The method, then:
as §1, §2, §3, §4, §5, §6, §7, §8, §9, §10, §11, §12, §13

Molecules are shown by their SMILES.

`CCOC(Cc1ccc(OCc2ccc3ncccc3c2)cc1)C(=O)O` (stereo not drawn) [Example 10 (32), 2-ethoxy-3-{[4-(quinoline-6-yl)methyloxy]phenyl}propanoic acid]: the “PPARα agonist activity, relative activity” value at human PPARα receptor (0.1 μM compound) is 0.2; on human PPARα receptor (1 μM compound) it was 0.3; on human PPARα receptor (10 μM compound) it was 50.1. Besides, the “PPAR γ agonist activity, relative activity” value on human PPARγ receptor (0.1 μM compound) is listed as 1.0; on human PPARγ receptor (1 μM compound), 20.8; on human PPARγ receptor (10 μM compound), 123.9.

Regarding `CCOC(Cc1ccc(OCc2cc(OC)c3ccccc3n2)cc1)C(=O)O` (stereo not drawn) [Example 11 (99), 2-ethoxy-3-{[4-(4-methoxyquinoline-2-yl)methyloxy]phenyl}propanoic acid], on human PPARα receptor, the Emax at 0.1 µM stood at 25.2%, the Emax at 1 µM amounted to 64.3% and the Emax at 10 µM turned out to be 68.6%. Further, on human PPARγ receptor, the Emax at 0.1 µM was 75.2%, the Emax at 1 µM came out at 115% and the Emax at 10 µM turned out to be 106%.

In the case of `CCOC(Cc1ccc(OCc2cnc3cc(C(F)(F)F)ccc3c2OC(C)C)cc1)C(=O)O` (stereo not drawn) [Example 12 (85), 2-ethoxy-3-{[4-(4-isopropoxy-7-trifluoromethylquinoline-3-yl)methyloxy]phenyl}propanoic acid], on human PPARα receptor, the Emax at 0.1 µM was determined as 0.2%, the Emax at 1 µM came to 0.3% and the Emax at 10 µM was 6.4%. Further, at human PPARγ receptor, the Emax at 0.1 µM was determined as 1.2%, the Emax at 1 µM was 60.4% and the Emax at 10 µM came out at 111%.

Turning to `CCOC(Cc1ccc(OCc2cnc3c(Cl)cccc3c2OC(C)C)cc1)C(=O)O` (stereo not drawn) [Example 13 (76), 3-{[4-(8-chloro-4-isopropoxyquinoline-3-yl)methyloxy]phenyl}-2-ethoxypropanoic acid], at human PPARα receptor, the Emax at 0.1 µM came to 0.3%, the Emax at 1 µM was 0.9% and the Emax at 10 µM was found to be 41.1%. Besides, on human PPARγ receptor, the Emax at 0.1 µM amounted to 104%, the Emax at 1 µM stood at 140% and the Emax at 10 µM was found to be 130%.

Turning to `CCOC(Cc1ccc(OCc2cnc3c(C(F)(F)F)cccc3c2OC(C)C)cc1)C(=O)O` (stereo not drawn) [Example 14 (86), 2-ethoxy-3-{[4-(4-isopropoxy-8-trifluoromethylquinoline-3-yl)methyloxy]phenyl}propanoic acid], on human PPARα receptor, the Emax at 0.1 µM came to 0.3%, the Emax at 1 µM was 0.3% and the Emax at 10 µM is 2.1%. At human PPARγ receptor, the Emax at 0.1 µM worked out at 19.6%, the Emax at 1 µM came to 76% and the Emax at 10 µM was 132%.

In the case of `CCOC(Cc1ccc(OCc2cnc3c(F)cccc3c2OC(C)C)cc1)C(=O)O` (stereo not drawn) [Example 15 (82), 2-ethoxy-3-{[4-(8-fluoro-4-isopropoxyquinoline-3-yl)methyloxy]phenyl}propanoic acid], at human PPARα receptor, the Emax at 0.1 µM turned out to be 0.3%, the Emax at 1 µM came out at 0.3% and the Emax at 10 µM was 5%. In addition, on human PPARγ receptor, the Emax at 0.1 µM was 52.3%, the Emax at 1 µM is 133% and the Emax at 10 µM was determined as 125%.

On to `CCOC(Cc1ccc(OCc2cccc3cccnc23)cc1)C(=O)O` (stereo not drawn) [Example 16 (32), 2-ethoxy-3-{[4-(quinoline-8-yl)methyloxy]phenyl}propanoic acid], for which, on human PPARα receptor, the Emax at 0.1 µM turned out to be 0.3%, the Emax at 1 µM worked out at 0.4% and the Emax at 10 µM is 45.2%. On human PPARγ receptor, the Emax at 0.1 µM turned out to be 1.6%, the Emax at 1 µM was found to be 71.8% and the Emax at 10 µM amounted to 127%.

Regarding `COc1ccc2ncc(COc3ccc(/C=C(\Sc4ccccc4)C(=O)O)cc3)c(OC(C)C)c2c1` [Example 18 (112), 3-{[4-(4-isopropoxy-6-methoxyquinoline-3-yl)methyloxy]phenyl}-2-phenylthiopropenoic acid], on human PPARα receptor, the Emax at 0.1 µM came to 0.3%, the Emax at 1 µM came out at 0.3% and the Emax at 10 µM was determined as 0.3%. On human PPARγ receptor, the Emax at 0.1 µM was found to be 0.5%, the Emax at 1 µM turned out to be 22.2% and the Emax at 10 µM stood at 89.9%.

As to `COc1ccc2ncc(COc3ccc(CC(Sc4ccccc4)C(=O)O)cc3)c(OC(C)C)c2c1` (stereo not drawn) [Example 19 (108), 3-{[4-(4-isopropoxy-6-methoxyquinoline-3-yl)methyloxy]phenyl}-2-phenylthiopropanoic acid], on human PPARα receptor, the Emax at 0.1 µM is 0.3%, the Emax at 1 µM is 0.3% and the Emax at 10 µM worked out at 0.6%. Besides, on human PPARγ receptor, the Emax at 0.1 µM came out at 25.2%, the Emax at 1 µM was 83.5% and the Emax at 10 µM amounted to 97.9%.
